In the supplement of paper PMC10307832:

Assays:
[1] = compound: C1=CC2=NC=CN=C2C=C1/C=C/3\C(=O)NC(=O)S3 + Cc1nc(Nc2ncc(C(=O)Nc3c(C)cccc3Cl)s2)cc(N2CCN(CCO)CC2)n1 [Dasatinib] (partner 0.075 µM); experiment: relative viability (nuclei count vs DMSO), 5 days (fraction); higher = more cells survive
How it was run: (§1)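 Five library-drug doses in √10 steps were combined with a fixed anchor-drug dose, or a single drug was given alone, by pin tool to lung cancer cell lines in 1536-well plates the day after seeding. Nuclei were stained and counted after 5 days. Relative viability is the nuclei count in treated wells over that in vehicle wells, taken as the median of duplicate plates.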

[2] = compound: C1=CC2=NC=CN=C2C=C1/C=C/3\C(=O)NC(=O)S3 + CCNC(=O)c1noc(-c2cc(C(C)C)c(O)cc2O)c1-c1ccc(CN2CCOCC2)cc1 [Luminespib] (partner 0.01 µM); experiment: as above
How it was run: as §1

Cell Line | relative viability ([1]; first compound 0.02 µM) | relative viability ([1]; first compound 0.06325 µM) | relative viability ([1]; first compound 0.2 µM) | relative viability ([1]; first compound 0.6325 µM) | relative viability ([1]; first compound 2 µM) | relative viability ([2]; first compound 0.02 µM) | relative viability ([2]; first compound 0.06325 µM) | relative viability ([2]; first compound 0.2 µM) | relative viability ([2]; first compound 0.6325 µM) | relative viability ([2]; first compound 2 µM)
NCI-H1395 | 0.44 | 0.386 | 0.417 | 0.417 | 0.354 | 0.807 | 0.693 | 0.719 | 0.607 | 0.794
NCI-H2126 | 0.499 | 0.625 | 0.614 | 0.629 | 0.266 | 0.86 | 1.12 | 0.866 | 0.83 | 0.601
LXF-289 | 0.192 | 0.176 | 0.254 | 0.215 | 0.0852 | 0.638 | 0.738 | 0.693 | 0.642 | 0.561
NCI-H2009 | 0.312 | 0.31 | 0.358 | 0.272 | 0.175 | 0.973 | 0.995 | 1.04 | 1.05 | 1.05
SW 900 | 0.499 | 0.788 | 0.625 | 0.883 | 0.486 | 0.163 | 0.176 | 0.173 | 0.223 | 0.21
NCI-H2405 | 0.233 | 0.161 | 0.231 | 0.184 | 0.155 | 0.783 | 0.598 | 0.6 | 0.699 | 0.424
NCI-H1755 | 0.43 | 0.371 | 0.448 | 0.355 | 0.257 | 0.433 | 0.329 | 0.606 | 0.244 | 0.352
LOU-NH91 | 0.568 | 0.597 | 0.551 | 0.525 | 0.354 | 0.363 | 0.344 | 0.334 | 0.346 | 0.314
NCI-H3122 | 0.8 | 0.953 | 0.747 | 0.816 | 0.701 | 0.0669 | 0.0861 | 0.11 | 0.0884 | 0.106
HCC-827 | 0.338 | 0.194 | 0.267 | 0.301 | 0.266 | 0.716 | 0.871 | 0.64 | 0.587 | 0.746
SK-LU-1 | 0.196 | 0.196 | 0.2 | 0.19 | 0.0971 | 0.203 | 0.2 | 0.19 | 0.202 | 0.221
NCI-H1975 | 0.293 | 0.38 | 0.369 | 0.334 | 0.318 | 0.289 | 0.117 | 0.202 | 0.149 | 0.174
NCI-H1651 | 0.403 | 0.452 | 0.461 | 0.311 | 0.21 | 0.848 | 0.842 | 0.77 | 0.753 | 0.842
NCI-H441 | 0.797 | 0.526 | 0.7 | 0.573 | 0.281 | 0.294 | 0.334 | 0.332 | 0.364 | 0.255
LCLC-103H | 0.427 | 0.571 | 0.474 | 0.461 | 0.214 | 1.02 | 0.966 | 0.906 | 0.966 | 0.806
LCLC-97TM1 | 0.974 | 0.762 | 0.775 | 0.8 | 0.306 | 0.767 | 0.839 | 0.823 | 0.671 | 0.499
NCI-H727 | 0.488 | 0.362 | 0.355 | 0.378 | 0.24 | 0.427 | 0.496 | 0.403 | 0.444 | 0.265
NCI-H1355 | 0.476 | 0.599 | 0.709 | 0.714 | 0.47 | 0.687 | 0.516 | 0.751 | 0.631 | 0.608
HOP-62 | 0.651 | 0.736 | 0.605 | 0.621 | 0.503 | 0.725 | 0.831 | 0.904 | 0.9 | 0.922
NCI-H2085 | 0.226 | 0.212 | 0.248 | 0.257 | 0.213 | 0.489 | 0.44 | 0.435 | 0.452 | 0.428
